Values joined by “and” are separate entries in the source; they are usually repeats but may differ in a detail not shown here. Equal entries are not always repeated. Structures can show the parent of a compound that is named as a salt. Where two headings read alike, the source gives them in different places.
Assays:
[1] = for effect on metoclopramide mass flux (in words) / effect on skin resistance / resistivity (in words): compared with control without enhancer; for Normalized Cell Voltage (after 5 hrs) / Normalized Metoclopramide Mass Flux (after 5 hrs): metoclopramide HCl 100 mg/ml, 100 μA/cm^2, 32° C.; for enhancer performance (in words): metoclopramide electrotransport
[2] = hydrophile-lipophile balance of the enhancer; cited from earlier work
[3] = Electrotransport of sodium ketoprofen with enhancer (Example 5); type: in vitro ADME, human; settings: for effect of 20% ethanol solvent on enhancer performance (in words) / effect on ketoprofen mass flux (in words) / effect on skin conductivity (in words): 100 mM ketoprofen; for effect of 20% ethanol solvent on enhancer performance (in words): 20 wt % ethanol/water; for effect on ketoprofen mass flux (in words) / effect on skin conductivity (in words): water alone
Experimental: (§1) Each floating epidermis was stretched essentially flat.
Sodium ketoprofen in aqueous solution forms an univalent anionic anti-inflammatory agent. The electrotransport delivery of 100 mM ketoprofen in the presence of cationic and non-ionic surfactants was tested under the conditions described in Example 1. The enhancers used were laurylamine and dimethyl lauramide. Two sets of tests were conducted. The first in aqueous solution, and the second in 20 wt % ethanol/water solution.

[4] = Electrotransport of di-sodium cromolyn with enhancer (Example 4); type: in vitro ADME, human; settings: concentration not given in b26; for lowering of skin resistivity: cromolyn donor, dodecylpyrrolidone 100 mM; for increase of cromolyn flux: dodecylpyrrolidone 100 mM in donor
Text: as §1
Di-sodium cromolyn, when in aqueous solution, forms a divalent anion. The experimental conditions were as described in Example 1, except the cromolyn donor solution was placed in the cathodic compartment 46 and the Dulbecco's phosphate buffered saline receptor solution was placed in the anodic compartment 44; and the stratum corneum layer of skin disk 42 was mounted to face the cathodic compartment 46.
Dodecylpyrrolidone, when added to the donor solution, at a concentration of 100 mM, increased cromolyn flux by 50 to 100% and lowered skin resistivity by 30 to 70%.

[5] = for Normalized Cell Voltage (after 5 hrs): relative to no ethanol (1.00)
Experimental: as §1
The prior art teaches that ethanol can be used to enhance both passive and electrically-assisted transdermal drug delivery. […] The agent utilized, metoclopramide HCl, was placed in the donor compartment at about 100 mg metoclopramide/ml, and Dulbecco's phosphate buffered saline (pH 7) was placed in the receptor compartment. The system was maintained at 32° C. and a constant electric current of 100 μA/cm^2 was applied throughout the procedure.

[6] = tetracaine; electrotransport pretreatment with the enhancer
Experimental: Solutions of the drug to be transported through the skin disks 42, and each of the electrotransport enhancers to be tested were placed at different times in the anodic donor compartment 44. Dulbecco's phosphate buffered saline (approximately 0.1 5N NaCl, with minor amounts of other ions, pH 7.0) was placed in the cathodic receptor compartment 46. The skin resistance was calculated from the voltages applied by the galvanostat according to Ohm's law:
The electrotransport of tetracaine was also conducted with surfactant flux enhancers, such as decyl methyl sulfoxide.

[7] = Micelle formation of tetracaine; type: physicochemical
Experimental: Tetracaine is a much less electrophilic molecule than metoclopramide since it is positively charged at its tertiary amine group, but the rest of the molecule is very hydrophobic. Concentrations of tetracaine higher than 20 mg/ml (75 mM) lead to the formation of micelles, due to the highly surfactant nature of the drug. Lower concentrations of tetracaine may lead to a better showing of the effect of the enhancer.

[8] = relative to control without enhancer (1.00), enhancer 10 mM
[9] = relative to control (1.00), dodecylpyrrolidone 100 mM

## CCCCCCCCCCCC(=O)N(C)C [Dimethyl lauramide]
[1]
  effect on metoclopramide mass flux (in words): almost doubling of the amount of the drug delivered
[1]; metoclopramide HCl donor, dimethyl lauramide added
  skin resistance relative to control: about one-half that of the control
[1]; [8]
  Normalized Cell Voltage (after 5 hrs): .45
  Normalized Metoclopramide Mass Flux (after 5 hrs): 1.87
[1]; relative to control without enhancer (1.00), enhancer 10 mM, listed as dimethyl lauramide
  Normalized Cell Voltage (after 5 hrs): 0.45
[2]
  HLB No.: 8
[3]
  effect of 20% ethanol solvent on enhancer performance (in words): improved the performance of both enhancers
  effect on ketoprofen mass flux (in words): increased mass flux
  effect on skin conductivity (in words): increased mass flux and skin conductivity
[3]; dimethyl lauramide added to ketoprofen, general description
  effect on ketoprofen flux and conductivity (in words): increase in both flux and conductivity

## CCCCCCCCCCCCN1CCCC1=O [Dodecyl pyrrolidone]
[1]; listed as dodecyl pyrrolidone
  enhancer performance (in words): superior characteristics
[1]; listed as dodecylpyrrolidone
  enhancer performance (in words): very effective enhancers
[1]; [9]
  Normalized Cell Voltage (after 5 hrs): .35
  Normalized Metoclopramide Mass Flux (after 5 hrs): 1.68
[2]
  HLB No.: 8
[4]; listed as Dodecylpyrrolidone
  lowering of skin resistivity: 30 to 70%
  increase of cromolyn flux: 50 to 100%
[4]; listed as dodecyl pyrrolidone
  lowering of skin resistivity: more than 30%
  increase of cromolyn flux: more than 50%

## CCO [Ethanol, ethanol]
[5]
  effect on mass flux of metoclopramide (in words): decreased the mass flux of metoclopramide
[5]; 10 to 30 wt % ethanol
  effect on skin conductivity (in words): decreased the mass flux of metoclopramide and the skin conductivity
[5]; ethanol 10 wt %
  Normalized Cell Voltage (after 5 hrs): 0.82
[5]; ethanol 20 wt %
  Normalized Cell Voltage (after 5 hrs): 0.70
[5]; ethanol 30 wt %
  Normalized Cell Voltage (after 5 hrs): 0.78

## CCCCCCCCCCCCN [Lauryl amine]
[1]
  effect on metoclopramide mass flux (in words): significantly decreased the flux
[1]; [8]
  Normalized Cell Voltage (after 5 hrs): .22
  Normalized Metoclopramide Mass Flux (after 5 hrs): 0.136
[2]
  HLB No.: 11
[3]
  effect of 20% ethanol solvent on enhancer performance (in words): improved the performance of both enhancers
  effect on ketoprofen mass flux (in words): increased mass flux
  effect on skin conductivity (in words): increased mass flux and skin conductivity

## CCCCCCCCCCCCOC(=O)C(C)O (stereo not shown) [Lauryl lactate, reference compound]
[1]; metoclopramide HCl donor
  effect on skin resistance / resistivity (in words): reduced skin resistivity
[1]; [8]
  Normalized Cell Voltage (after 5 hrs): .92
[2]
  HLB No.: 4.7

## CCCCCCCCCCCCOS(=O)(=O)[O-].[Na+] [Sodium lauryl sulfate]
[1]
  effect on metoclopramide mass flux (in words): enhanced mass flux
  enhancer performance (in words): superior characteristics
[1]; [8]
  Normalized Cell Voltage (after 5 hrs): .76
  Normalized Metoclopramide Mass Flux (after 5 hrs): 1.64
[2]
  HLB No.: 40

## CCCCCCCCCC[S+](C)[O-] (stereo not shown) [n-Decyl methyl sulfoxide]
[1]; [8]
  Normalized Cell Voltage (after 5 hrs): .44
[2]
  HLB No.: 32
[6]
  decrease of cell voltage (in words): highly beneficial

## CCCCNc1ccc(C(=O)OCCN(C)C)cc1 [tetracaine HCl]
[7]
  concentration leading to the formation of micelles: higher than 20 mg/ml and > 75 mM

## Sorbitan monolaurate [reference compound]
[1]; metoclopramide HCl donor
  effect on skin resistance / resistivity (in words): fail to have a significant effect
[1]; [8]
  Normalized Cell Voltage (after 5 hrs): .98
[2]
  HLB No.: 8.6

## lauramphocarboxy propionate [Lauramphocarboxypropionate, reference compound]
[1]; metoclopramide HCl donor
  effect on skin resistance / resistivity (in words): did not appear to affect
[1]; [8]
  Normalized Cell Voltage (after 5 hrs): .93
[2]
  HLB No.: 54
